From ChEMBL document CHEMBL2440104, “Synthesis and Biological Evaluation of the First Example of NO-Donor Histone Deacetylase Inhibitor” (ACS Med Chem Lett, 2013)
Values belong to the compound of their own block, whether it stands above or below them. Calls of active or inactive are those of the source. No cut-off for these calls is given here.

Columns and labels:
[1] = molecular target: T1, Histone deacetylase (Homo sapiens) (UniProt Q13547+O15379+Q9UBN7+Q92769+Q9UQL6+Q8WUI4+Q9BY41+Q96DB2+P56524+Q9UKV0+Q969S8); test: Effect on HDAC in human HaCaT cells assessed as downregulation of miR-378 at 10 uM after 1 hr by RT-PCR analysis; format: cell-based
[2] = system: HaCaT; test: Induction of NO release in human HaCaT cells at 10 uM after 1 to 5 hrs by DAF-2D-based FACS analysis relative to DMSO-treated control; format: functional, cell-based
[3] = molecular target: T1, Histone deacetylase (Homo sapiens); test: Effect on HDAC in human HaCaT cells assessed as upregulation of miR-30d# at 10 uM after 1 hr by RT-PCR analysis; format: cell-based
[4] = molecular target: T1, Histone deacetylase (Homo sapiens); test: Inhibition of HDAC activity in human HaCaT cell lysate at 50 uM after 1 hr by colorimetry; format: cell-free
[5] = molecular target: T1, Histone deacetylase (Homo sapiens); test: Effect on HDAC in human HaCaT cells assessed as downregulation of miR-505# at 10 uM after 1 hr by RT-PCR analysis; format: cell-based
[6] = system: C2C12; test: Increase in mouse C2C12 cell proliferation at 0.1 uM after 72 hrs; format: functional, cell-based
[7] = molecular target: Histone deacetylase 4 (Homo sapiens) (UniProt P56524); test: Induction of HDAC4 nuclear shuttling in human HaCaT cells at 10 uM after 1 hr by immunofluorescence method relative to DMSO-treated control; format: cell-based
Sequence of Histone deacetylase 4 (Homo sapiens) (P56524 whole entry): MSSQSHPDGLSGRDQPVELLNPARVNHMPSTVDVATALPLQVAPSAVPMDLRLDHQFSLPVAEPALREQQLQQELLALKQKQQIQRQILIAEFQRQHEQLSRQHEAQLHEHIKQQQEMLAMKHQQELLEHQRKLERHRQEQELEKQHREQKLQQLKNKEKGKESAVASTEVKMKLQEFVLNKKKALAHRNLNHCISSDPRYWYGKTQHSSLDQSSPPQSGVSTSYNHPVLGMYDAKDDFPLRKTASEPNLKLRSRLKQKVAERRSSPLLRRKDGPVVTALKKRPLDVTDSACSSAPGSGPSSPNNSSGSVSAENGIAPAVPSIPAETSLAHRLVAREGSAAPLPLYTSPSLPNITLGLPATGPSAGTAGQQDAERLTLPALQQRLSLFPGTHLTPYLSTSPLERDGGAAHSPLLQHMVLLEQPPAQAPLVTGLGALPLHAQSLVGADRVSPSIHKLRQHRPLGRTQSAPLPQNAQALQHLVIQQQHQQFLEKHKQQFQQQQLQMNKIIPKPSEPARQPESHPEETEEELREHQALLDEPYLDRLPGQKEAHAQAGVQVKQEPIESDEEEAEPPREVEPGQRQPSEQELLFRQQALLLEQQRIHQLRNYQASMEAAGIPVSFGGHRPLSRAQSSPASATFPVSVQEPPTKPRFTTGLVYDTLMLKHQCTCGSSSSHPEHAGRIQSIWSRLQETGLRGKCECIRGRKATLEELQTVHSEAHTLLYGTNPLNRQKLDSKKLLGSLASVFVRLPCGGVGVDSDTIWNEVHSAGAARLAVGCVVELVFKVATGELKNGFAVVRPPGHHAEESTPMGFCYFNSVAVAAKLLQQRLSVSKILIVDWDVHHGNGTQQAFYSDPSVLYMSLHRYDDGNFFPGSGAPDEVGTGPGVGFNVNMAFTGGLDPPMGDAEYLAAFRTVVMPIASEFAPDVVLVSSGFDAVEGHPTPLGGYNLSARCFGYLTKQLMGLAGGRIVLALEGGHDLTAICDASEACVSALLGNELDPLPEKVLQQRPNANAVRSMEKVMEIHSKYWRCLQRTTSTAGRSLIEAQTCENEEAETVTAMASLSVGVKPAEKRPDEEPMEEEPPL

[8] = molecular target: T1, Histone deacetylase (Homo sapiens); test: Effect on HDAC in human HaCaT cells assessed as upregulation of miR-1296 at 10 uM after 1 hr by RT-PCR analysis; format: cell-based
[9] = molecular target: T1, Histone deacetylase (Homo sapiens); test: Effect on HDAC in human HaCaT cells assessed as downregulation of miR-106b# at 10 uM after 1 hr by RT-PCR analysis; format: cell-based
[10] = system: C2C12; test: Modulation of mouse C2C12 cell proliferation at 0.1 uM after 72 hrs; format: functional, cell-based
[11] = molecular target: T1, Histone deacetylase (Homo sapiens); test: Effect on HDAC in human HaCaT cells assessed as downregulation of miR-1254 at 10 uM after 1 hr by RT-PCR analysis; format: cell-based
[12] = molecular target: T1, Histone deacetylase (Homo sapiens); test: Effect on HDAC in human HaCaT cells assessed as upregulation of miR-18a# at 10 uM after 1 hr by RT-PCR analysis; format: cell-based
[13] = molecular target: T1, Histone deacetylase (Homo sapiens); test: Effect on HDAC in human HaCaT cells assessed as downregulation of miR-19b-1 at 10 uM after 1 hr by RT-PCR analysis; format: cell-based
[14] = molecular target: T1, Histone deacetylase (Homo sapiens); conditions: HaCaT, at 1 to 50 µM
Description: Inhibition of HDAC activity in human HaCaT cell lysate at 1 to 50 uM after 1 hr by colorimetry

[15] = system: C2C12; test: Induction of myogenic differentiation in mouse C2C12 cells assessed as increase in number of nuclei per fiber at 0.1 uM after 7 days by immunofluorescence microscopy; format: functional, cell-based
[16] = molecular target: T1, Histone deacetylase (Homo sapiens); test: Effect on HDAC in human HaCaT cells assessed as downregulation of miR-33a# at 10 uM after 1 hr by RT-PCR analysis; format: cell-based
[17] = system: HaCaT; test: Induction of NO release in human HaCaT cells assessed as Production of [3H]cGMP after 1 hr by liquid scintillation counting; format: functional, cell-based
[18] = molecular target: T1, Histone deacetylase (Homo sapiens); test: Effect on HDAC in human HaCaT cells assessed as downregulation of miR-27a# at 10 uM after 1 hr by RT-PCR analysis; format: cell-based
[19] = molecular target: Histone deacetylase 2 (Homo sapiens) (UniProt Q92769); test: Induction of HDAC2 cysteine S-nitrosylation in human HaCaT cells at 10 uM after 1 hr by immunoprecipitation method in prsence of NO scavenger PTIO; format: cell-based
Sequence of Histone deacetylase 2 (Homo sapiens) (Q92769 whole entry): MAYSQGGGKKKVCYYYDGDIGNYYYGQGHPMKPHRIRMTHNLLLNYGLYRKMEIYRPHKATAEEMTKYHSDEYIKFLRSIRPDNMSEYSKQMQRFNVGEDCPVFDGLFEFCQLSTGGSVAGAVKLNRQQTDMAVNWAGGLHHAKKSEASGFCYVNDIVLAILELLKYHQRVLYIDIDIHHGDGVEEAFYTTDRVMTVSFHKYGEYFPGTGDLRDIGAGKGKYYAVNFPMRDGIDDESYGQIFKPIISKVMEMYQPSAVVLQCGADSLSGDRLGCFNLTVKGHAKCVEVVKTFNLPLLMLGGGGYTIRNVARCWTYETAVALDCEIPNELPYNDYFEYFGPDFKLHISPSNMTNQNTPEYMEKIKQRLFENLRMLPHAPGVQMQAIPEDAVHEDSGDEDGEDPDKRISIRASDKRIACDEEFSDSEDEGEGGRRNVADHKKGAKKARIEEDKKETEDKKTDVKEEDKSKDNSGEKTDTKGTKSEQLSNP

[20] = molecular target: Histone deacetylase 2 (Homo sapiens) (UniProt Q92769); test: Induction of HDAC2 cysteine S-nitrosylation in human HaCaT cells at 10 uM after 1 hr by immunoprecipitation method; format: cell-based
[21] = molecular target: T1, Histone deacetylase (Homo sapiens); test: Effect on HDAC in human HaCaT cells assessed as upregulation of miR-409-3p at 10 uM after 1 hr by RT-PCR analysis; format: cell-based
[22] = molecular target: T1, Histone deacetylase (Homo sapiens); test: Effect on HDAC in human HaCaT cells assessed as downregulation of miR-200a# at 10 uM after 1 hr by RT-PCR analysis; format: cell-based
[23] = molecular target: T1, Histone deacetylase (Homo sapiens); test: Effect on HDAC in human HaCaT cells assessed as upregulation of miR-192# at 10 uM after 1 hr by RT-PCR analysis; format: cell-based
[24] = molecular target: T1, Histone deacetylase (Homo sapiens); test: Effect on HDAC in human HaCaT cells assessed as downregulation of miR-99b# at 10 uM after 1 hr by RT-PCR analysis; format: cell-based
[25] = molecular target: T1, Histone deacetylase (Homo sapiens); test: Effect on HDAC in human HaCaT cells assessed as upregulation of miR-1305 at 10 uM after 1 hr by RT-PCR analysis; format: cell-based
[26] = system: C2C12; test: Induction of myogenic differentiation in mouse C2C12 cells assessed as MHC-positive fibers at 0.1 uM after 7 days by immunofluorescence microscopy; format: functional, cell-based

Activity [1]: Active | Activity [3]: Active | inhibition [4]: Active | Activity [5]: Active | Activity [7]: Active | Activity [8]: Active | Activity [9]: Active
Structure (SMILES): CN(C)Cc1no[n+]([O-])c1C#N
Activity [2]: Active | Activity [6]: Active

Activity [7]: inactive
Structure (SMILES): Nc1ccccc1NC(=O)c1ccc(CNC(=O)OCc2cccnc2)cc1
Activity [2]: inactive | Activity [10]: Active

Activity [11]: Active | Activity [12]: Active | Activity [13]: Active | inhibition [14]: Active | Activity [1]: Active | Activity [16]: Active | Activity [18]: Active | Activity [19]: inactive | Activity [20]: Active | Activity [21]: Active | Activity [7]: Active | Activity [22]: Active | Activity [23]: Active | Activity [24]: Active | Activity [25]: Active | Activity [9]: Active
Structure (SMILES): CN(Cc1ccc(COC(=O)NCc2ccc(C(=O)Nc3ccccc3N)cc2)cn1)Cc1no[n+]([O-])c1C#N
Activity [2]: Active | Activity [15]: Active | Activity [17]: Dose-dependent effect | Activity [10]: Active | Activity [26]: Active
